The values that follow come from ChEMBL document CHEMBL1149803, “Synthesis and anticonvulsant activity of some novel 3-aryl amino/amino-4-aryl-5-imino-Delta2-1,2,4-thiadiazoline” (Eur J Med Chem, 2008).

Structures are written as SMILES. Active and inactive are the calls of the source. The calls are words filed in the database; no cut-off is given here.

Series [1] has as its system Mus musculus. The experiment in a line: Anticonvulsant activity in ip dosed CF1 albino mouse assessed as prevention of maximal electroshock-induced seizures after 0.5 hrs. Format: functional. (Protection in the maximal electroshock model is a classic sign of anticonvulsant action.)
For series [2], the system named is Mus musculus. The experiment in a line: Anticonvulsant activity in CF1 albino mouse assessed as prevention of maximal electroshock-induced seizures at 300 mg/kg, ip after 4 hrs. Format: functional, organism-based. Also noted: dose 300 mg/kg.
The test system of series [3] is Mus musculus. The experiment in a line: Anticonvulsant activity in CF1 albino mouse assessed as prevention of subcutaneous pentylenetetrazole-induced seizure at 300 mg/kg, ip after 0.5 hrs. Details: dose 300 mg/kg. Format: functional, organism-based.
Series [4] has as its system Mus musculus. The series can be described thus: Anticonvulsant activity in CF1 albino mouse assessed as prevention of subcutaneous pentylenetetrazole-induced seizure at 300 mg/kg, ip after 4 hrs. Format: functional, organism-based. Details: dose 300 mg/kg.
Series [5] concerns Mus musculus. The experiment in a line: Neurotoxicity in ip dosed CF1 albino mouse after 0.5 hrs by rotarod test. Format: toxicity, organism-based. As to conditions: in vivo. (In general: Falling from the rotarod earlier than controls is read as motor impairment.)
The test system of series [6] is Mus musculus. The experiment in a line: Anticonvulsant activity in ip dosed CF1 albino mouse assessed as prevention of maximal electroshock-induced seizures after 4 hrs. Format: functional.
The subject of series [7] is Rattus norvegicus. The experiment in a line: Sedative-hypnotic effect in Sprague-Dawley albino rat assessed as increase in sleep time at 100 mg/kg, ip by phenobarbitone-induced hypnosis test. Format: functional. As to conditions: route intraperitoneal.
Series [8] has as its system Mus musculus. The series can be described thus: Neurotoxicity in ip dosed CF1 albino mouse after 4 hrs by rotarod test. As to conditions: in vivo. Format: toxicity, organism-based.
Series [9] deals with Mus musculus. The experiment in a line: Anticonvulsant activity in ip dosed CF1 albino mouse assessed as prevention of subcutaneous pentylenetetrazole-induced seizure after 0.5 hrs. Format: functional.
The test system of series [10] is Mus musculus. The experiment in a line: Anticonvulsant activity in CF1 albino mouse assessed as prevention of maximal electroshock-induced seizures at 300 mg/kg, ip after 0.5 hrs. Format: functional, organism-based. Details: dose 300 mg/kg.

As for `N=c1snc(N)n1-c1ccncc1`, the Activity in series [1] came to 300 mg/kg; in series [5] it was 100 mg/kg. In addition, the result in series [2], in series [3] and in series [4] was inactive.

Take `N=c1snc(Nc2cccnc2)n1-c1cccnc1`: the results for the Activity in series [1] and in series [5] were 300 mg/kg and 100 mg/kg, respectively. Besides, the result in [2], in series [3] and in series [4] was inactive.

Take `N=c1snc(Nc2cccc3ccccc23)n1-c1cccc2ccccc12`: the Activity in [1] worked out at 30 mg/kg; in [6], 300 mg/kg; in series [5], 300 mg/kg; in series [7], 16.4%. The outcome in series [3] and in series [4] was inactive.

For `N=c1snc(N)n1-c1ccc(Br)cc1`, the Activity in [1] was determined as 300 mg/kg. Further, the outcome in series [2], in [3] and in [4] was inactive.

For the compound `N=c1snc(N)n1-c1cccc2ccccc12`, the Activity in series [1] worked out at 30 mg/kg; in series [5], 300 mg/kg; in series [8], 300 mg/kg; in series [7], 8.8%. The result in series [2], in series [3] and in series [4] was inactive.

In the case of `N=c1snc(N)n1-c1cccnc1`, the Activity in [1] is 300 mg/kg; in [5], 100 mg/kg. Also, the result in series [2], in series [3] and in series [4] was inactive.

Regarding `O=C1NC(=O)C(c2ccccc2)(c2ccccc2)N1` [PHENYTOIN], the Activity came out at 30 mg/kg in [1], 100 mg/kg in [6], 100 mg/kg in series [5] and 100 mg/kg in series [8]. The result in [3] and in [4] was inactive.

On to `NC(=O)N1c2ccccc2C=Cc2ccccc21` [CARBAMAZEPINE], for which the Activity in [1] came to 30 mg/kg; in series [9], 100 mg/kg; in series [5], 100 mg/kg; in series [8], 300 mg/kg. The outcome in [2] and in [4] was inactive.

Take `N=c1snc(Nc2ccc(F)cc2)n1-c1ccc(F)cc1`: the Activity came out at 100 mg/kg in series [1], 300 mg/kg in series [6], 300 mg/kg in series [5] and 5.1% in series [7]. The outcome in series [3] and in series [4] was inactive.

On to `N=c1snc(Nc2ncccn2)n1-c1ncccn1`, for which the Activity in [1] was 100 mg/kg; in series [5], 100 mg/kg; in series [7], 11.4%. Moreover, the outcome in series [2], in [3] and in [4] was inactive.

With `CCOc1ccc(Nc2nsc(=N)n2-c2ccc(OCC)cc2)cc1`, the Activity in [1] stood at 30 mg/kg; in series [6] it was 300 mg/kg; in series [9], 300 mg/kg; in series [5] it was 300 mg/kg; in [7], 55.6%. Also, in series [4], the result was inactive.

For `COc1ccc(-n2c(N)nsc2=N)cc1`, the Activity in series [1] stood at 300 mg/kg. Further, the result in series [2], in series [3] and in [4] was inactive.

For the compound `N=c1snc(N)n1-c1ccccn1`, the Activity in series [1] was found to be 300 mg/kg; in series [5] it was 100 mg/kg. The result in series [2], in series [3] and in series [4] was inactive.

Consider `CCOc1ccc(-n2c(N)nsc2=N)cc1`, for which the values for the Activity in [1], in series [5] and in series [7] were 100 mg/kg, 100 mg/kg and 46.8%, respectively. The outcome in series [2], in series [3] and in series [4] was inactive.

In the case of `N=c1snc(N)n1-c1ncccn1`, the outcome in series [10], in series [2], in series [3] and in series [4] was inactive. Moreover, the Activity in series [5] was found to be 100 mg/kg.

For the compound `N=c1snc(N)n1-c1ccc(F)cc1`, the Activity in [1] came to 100 mg/kg; in series [6] it was 300 mg/kg; in series [5], 100 mg/kg; in series [7], 20.2%. Further, the outcome in [3] and in [4] was inactive.

In the case of `N=c1snc(Nc2ccncc2)n1-c1ccncc1`, the figures for the Activity in [1] and in [5] were 300 mg/kg and 100 mg/kg, respectively. Moreover, the outcome in series [2], in series [3] and in [4] was inactive.

As to `N=c1snc(Nc2ccccn2)n1-c1ccccn1`, the Activity came out at 300 mg/kg in series [1], 100 mg/kg in series [5] and 300 mg/kg in [8]. Moreover, the outcome in [2], in series [3] and in series [4] was inactive.

For `N=c1snc(N)n1-c1ccc(Cl)cc1`, the Activity in series [1] was 300 mg/kg; in series [5], 100 mg/kg. Besides, the outcome in [2], in series [3] and in series [4] was inactive.
